According to a melting point compilation (Tetko et al.; mined from patent text by program, amines drawn as free bases though some values may be those of a salt):

Row | Compound | melting point [°C]
1 | CCOC(=O)C1=C(C)NC(SCc2ccc(OC)cc2)=NC1c1cccc([N+](=O)[O-])c1 (stereo unspecified) | 95 to 97
2 | O=Cc1ccc2c(c1)C1(c3ccccc3-2)c2ccccc2-c2ccc(C=O)cc21 | > 300
3 | CC(=O)Nc1ncsc1C | 62 to 64
4 | CN(c1cccc2cc(C3=NCC(CC(=O)O)S3)[nH]c12)S(=O)(=O)c1ccccn1 (stereo unspecified) | 231 to 233
5 | CCCc1nc(NCc2ccco2)nc(Nc2cccc(C(F)(F)F)c2)n1 | 110 to 112
6 | CCCOc1ccc(-c2cccc(/C=C/C(=O)OCC)c2)cc1OC | 66 to 68
7 | Cc1nc2cc(NC(=O)Nc3ccc(C(F)(F)F)cc3)ccc2o1 | 240 to 243
8 | c1cnc(NCc2ccc(-c3n[nH]c4c3Cc3ccccc3-4)s2)nc1 | 232 to 233
9 | Cc1cccc(-c2[nH]c(C(C)C)nc2-c2cccc(-c3ccccc3F)c2)n1 | 153 to 155
10 | COc1cc(C2CCN(CC(O)CF)CC2)ccc1Nc1ncc2ccc(-c3ccccc3OC)n2n1 (stereo unspecified) | 73 to 79
11 | CCOCc1nc2c(N)nc3cc(OCCCN4CCCC4=O)ccc3c2n1CCCCNC(=O)OC(C)(C)C | 134 to 136
12 | Cn1cc(-c2cccc(C(F)(F)F)c2)c(=O)c(-c2cccc(C(F)(F)F)c2)c1 | 152 to 154
13 | Cc1ccnc(NC(=O)C2CC2)c1[N+](=O)[O-] | 179
14 | Nc1ccc(-c2nc3cc(N)ccc3o2)cc1 | 226 to 228
15 | O=[N+]([O-])C=Cc1cccc(Cl)c1Cl | 89 to 91
16 | Cc1cccc2c1ccc1c3occ(C)c3c(=O)oc21 | 173 to 175
17 | C=Cc1ccc(CN2CCNCCNCC2)cc1 | 56 to 59
18 | O=C1COC2(CCN(CCc3c[nH]c4ccccc34)CC2)CN1 | 48 to 50
19 | C#CCn1nnc2cc3c(cc2c1=O)OC1CCCN1C3=O (stereo unspecified) | 186 to 188
20 | CCCCn1c(CCC)cc(=O)c(C(=O)Nc2ccccc2)c1CCC | 134 to 136
21 | CS(=O)(=O)N1CCn2c(nc3c(N)nc4cc(Br)ccc4c32)C1 | 315 to 317
22 | Cc1cccc(C(=O)O)c1OC(=O)C=Cc1ccccc1 | 141 to 142
23 | COc1cc(Nc2c(C#N)cnc3cc(-c4ccc(CN5CCCCC5)cc4)sc23)c(Cl)cc1Cl | 218 to 220
24 | COc1ccc(C=Cc2ccc(CBr)cc2)cc1 | 147 to 148
25 | CC=CCNc1cc(C(=O)O)cc(S(N)(=O)=O)c1Nc1ccc(N)cc1 | 208
26 | CC(C)(C)OC(=O)NCCC(=O)c1c(Cl)cccc1[Si](C)(C)C | 51 to 52

Row | Compound | melting point [°C]
27 | Cc1nnc(NCCCOc2cccc(CN3CCCCC3)c2)n1C | 143 to 144
28 | CC(C)(C)C(=O)NC1CCCNC(=O)C1 (stereo unspecified) | 106 to 107
29 | CC(=O)NC1CSC(=S)N(c2cccc(F)c2)C1=O (stereo unspecified) | 176 to 177
30 | COc1ccc(Cl)cc1C(=O)NCCC1CCN(S(=O)(=O)NC(=S)NC2CCCCC2)CC1 | 146 to 148
31 | Cc1ccn2ncc(C(=O)Nc3cc(Cl)ccc3OC3CCC(O)CC3)c2n1 (stereo unspecified) | 179 to 182
32 | O=P(c1ccccc1)(c1ccccc1)C(F)F | 93 to 94
33 | CCOC(=O)Cn1ncc2c(Br)c(OC)ccc21 | 106 to 107
34 | CCCCCCCCCN(c1ccccc1)P(=O)(O)O | 64 to 65
35 | O=C(N[C@@H]1CCCC[C@H]1O)c1cnc(OCC(F)(F)F)c(-c2ccc(F)cc2)n1 | 133 to 134
36 | CCOC(=O)C[C@H](NC(=O)/C=C/C(=O)c1ccccc1)C(=O)OCC | 91 to 93
37 | COC(=O)c1nsnc1Br | 57 to 58
38 | CCOC(=O)c1cn(OC)c2nc3cc(F)c(F)cc3cc2c1=O | 266 to 268
39 | O=C(C=Cc1cccc(S(=O)(=O)N2CCN(c3ccccc3F)CC2)c1)NO | 176
40 | C#CC(C)(O)C1CCC2C3CC=C4CC(OC)CCC4(C)C3CCC21C (stereo unspecified) | 175 to 176
41 | CCCCOCCOc1ccc(-c2ccc3c(c2)C=C(C(=O)O)CCN3CC2CC2)cc1 | 152 to 155
42 | O=S(=O)(Nc1cccc(CCOCc2nc(-c3ccc(F)cc3)sc2Br)c1)C(F)(F)F | 84 to 85
43 | O=C(Nc1nnn[nH]1)c1ccccc1[N+](=O)[O-] | 272 to 273
44 | N#CC(Cc1ccccc1)C(=O)O (stereo unspecified) | 97
45 | CC(C)(C)c1cc(CCc2ccc(NC(=O)Nc3ccccc3)cc2)cc(C(C)(C)C)c1O | 206 to 207
46 | CCOC(=O)C(=CNc1ccnn1-c1ccccc1)C(=O)OCC | 96 to 97
47 | CC(C)C[C@@H](C(=O)O)N(C)Cc1ccc(C(C)(C)C)cc1 | 110 to 112
48 | COC(=O)[C@@H]1[C@@H](O[Si](C)(C)C(C)(C)C)CCN1C(=O)Nc1ccc(C#N)c(Cl)c1C | 123 to 125
49 | Cc1sc(C(=O)O)c2c1-c1nn(Cc3ccccc3)cc1CC2 | 231 to 232
50 | O=C(Oc1c(F)c(F)c(F)c(F)c1F)c1ccccc1O | 111 to 112
51 | COc1ccc(C(O)Cc2c(Cl)cncc2Cl)cc1OC1CCCC1 (stereo unspecified) | 124 to 125
